# Patent US6573286B1, “2-(2,6-disubstituted phenyl)-4-aryl-5-alkyl-1,3-oxazoline compounds” (Dow AgroSciences LLC, priority 2002, dated 2003)
# Assays:
# Assay type in all cases: in vivo
# [1] = system: beet armyworm (Spodoptera exigua); test: Insecticidal test for beet armyworm, treated lepidopteran diet; details: 2nd instar larvae on treated diet, 5 days; for pest or weed control at 400 ppm: Spodoptera exigua, 120 h, read-out: BAW: activity against beet armyworm (% Control rating)
# Description: (§1) Insecticidal test for tobacco budworm (Heliothis virescens), beet armyworm (Spodoptera exigua), and cabbage looper (Trichoplusia ni). To prepare test solution, the test compound was formulated at 400 ppm in 7.5 mL of 2 acetone:1 tap water. 250 μL of the test solution was pipetted upon the surface of 8 mL of lepidopteran diet (modified Shorey) contained in each of five one-ounce plastic cups (one cup=1 replication). […] After air-drying, the treated leaf discs were placed individually into one-ounce plastic cups. Each dried, treated cotton cotyledon disc was infested with a 2nd instar tobacco budworm larva, and each cabbage leaf disc was infested with a 2nd instar cabbage looper larva. Cups containing the treated substrates and larvae were capped and then held in a growth chamber at 25° C., 50-55% RH, and 14 hr light:10 hr dark for 5 days.
# [2] = system: two-spotted spider mite (Tetranychus urticae); test: Insecticidal test for two-spotted spider mite, ovicide method; details: ovicide method on cotton leaf discs, 6 days; for pest or weed control at 2.5 ppm: Tetranychus urticae, foliar, 144 h, read-out: SM: activity against two-spotted spider mite (% Control rating)
# Description: Insecticidal test for two-spotted spider mite (Tetranychus urticae) Ovicide Method: Ten adult female two-spotted spider mites were placed on eight 2.2 cm leaf discs of cotton leaf, allowed to oviposit over 24 hours, and thereafter removed. […] Discs were placed on an agar substrate and held at 24° C. and 90% RH for 6 days.
# [3] = system: cabbage looper (Trichoplusia ni); test: Insecticidal test for cabbage looper, treated cabbage leaf disc; details: 2nd instar larvae on dipped cabbage leaf discs, 5 days; for pest or weed control at 400 ppm: Trichoplusia ni, foliar, 120 h, read-out: CL: activity against cabbage looper (% Control rating)
# Description: as §1
# [4] = system: Sweetpotato Whitefly (Bemisia tabacia); test: Insecticidal test for Sweetpotato Whitefly, sprayed cotton plants; details: 200 ppm spray, large nymphs counted after 13 days
# Description: Insecticidal test for Sweetpotato Whitefly (Bemisia tabacia) Four mg of each test compound were dissolved by adding 4 mL of a 90:10 acetone:ethanol solvent mixture to the vial containing the sample compound. This solution was added to 16 mL of water containing 0.05% Tween 20 surfactant to produce 20 mL of a 200 ppm spray solution. Five-week-old cotton plants reared in a greenhouse were stripped of all foliage except for the two uppermost true leaves that were greater than 5 cm in diameter. These plants were then placed into a laboratory colony of whiteflies for two days for oviposition by the colony females. All whiteflies were then removed from the test plants with pressurized air. The spray solution was then applied to the test plants with a hand-held syringe fitted with hollow cone nozzle. One mL spray solution was applied to each leaf top and bottom for a total of 4 mL per plant. Four replications of each test compound utilized a total of 16 mL spray solution. Plants were air dried and then placed in a holding chamber (28° C. and 60% RH) for 13 days. Compound efficacy was evaluated by counting, under an illuminated magnifying glass, the number of large nymphs (3rd-4th instar) per leaf. Percent control based on reduction of large nymphs of a test compound compared to solution-only (no test compound) sprayed plants is reported in Table 1-8.
# [5] = system: tobacco budworm (Heliothis virescens); test: Insecticidal test for tobacco budworm, treated cotton cotyledon leaf disc; details: 2nd instar larvae on dipped cotton cotyledon discs, 5 days; for pest or weed control at 400 ppm: Heliothis virescens, foliar, 120 h, read-out: TBW: activity against tobacco budworm (% Control rating)
# Description: as §1
# [6] = system: cotton aphid (Aphis gossypii); test: Insecticidal test for cotton aphid, sprayed squash cotyledons; details: 50 ppm spray, graded after 3 days
# Description: Insecticidal test for cotton aphid (Aphis gossypii) To prepare spray solutions, 1 mg of each test compound was dissolved into 1 mL of a 90:10 acetone:ethanol solvent. This 1 mL of chemical solution was added to 19 mL of water containing 0.05% Tween 20 surfactant to produce a 50 ppm spray solution. Squash cotyledons were infested with cotton aphid (all life stages) 16-20 hours prior to application of spray solution. The solution was sprayed on both sides of each infested squash cotyledon (0.5 mL×2 each side) with a sweeping action until runoff. The plants were allowed to air dry and held for 3 days in a controlled room at 26° C. and 40% RH after which time the test was graded. Grading was by actual count using a dissecting microscope and comparison of test counts to the untreated check.
SMILES,pest or weed control at 400 ppm [1] [%],pest or weed control at 2.5 ppm [2] [%],pest or weed control at 400 ppm [3] [%],pest or weed control at 400 ppm [5] [%],also measured
"C[C@@H]1OC(c2c(F)cccc2F)=N[C@@H]1c1ccc(-c2ccc(C(F)(F)F)cc2)cc1 (mixture of isomers) [Compound 5, (4R,5S)- and 4S,5R)-2-(2,6-difluorophenyl)-5-methyl-4-[4′-(trifluoromethyl)-1,1′-biphenyl-4-yl]-4,5-dihydro-1,3-oxazole]",90 to 100,90 to 100,90 to 100,,
"C[C@H]1OC(c2c(F)cccc2F)=N[C@H]1c1ccc(-c2ccc(OC(F)(F)F)cc2)cc1 (racemic) [Compound 6, (4S,5R)- and (4R,5S)-2-(2,6-difluorophenyl)-4-(4′-trifluoromethoxy-1,1′-biphenyl-4-yl)-5-methyl-4,5-dihydro-1,3-oxazole]",,,,,WF: activity against whitefly (% Control rating) [4]: B (80-89)
"Cc1ccc(-c2ccc([C@@H]3N=C(c4c(F)cccc4F)O[C@@H]3C)cc2)cc1C (racemic) [Compound 8, (4S,5R)- and (4R,5S)-2-(2,6-difluorophenyl)-4-(3′,4′-dimethyl-1,1′-biphenyl-4-yl)-5-methyl-4,5-dihydro-1,3-oxazole]",90 to 100,,90 to 100,60 to 69,
"CCOc1ccc(-c2ccc([C@H]3N=C(c4c(F)cccc4F)O[C@H]3C)cc2)cc1 (racemic) [Compound 12, (4R,5S)- and (4S,5R)-2-(2,6-difluorophenyl)-4-(4′-ethoxy-1,1′-biphenyl-4-yl)-5-methyl-4,5-dihydro-1,3-oxazole]",90 to 100,,90 to 100,80 to 89,
"C[C@H]1OC(c2c(F)cccc2F)=NC1c1ccc(-c2ccc3c(c2)OC(F)(F)O3)cc1 (mixture of isomers) [Compound 13, (4R,5S)- and (4S,5R)-4-[4-(2,2-difluoro-1,3-benzodioxol-5-yl)phenyl]-2-(2,6-difluorophenyl)-5-methyl-4,5-dihydro-1,3-oxazole]",,,90 to 100,< 50,
"C[C@@H]1OC(c2c(F)cccc2F)=N[C@@H]1c1ccc(-c2ccccc2F)cc1 (racemic) [Compound 15, (4R,5S)- and (4S,5R)-2-(2,6-difluorophenyl)-4-(2′-fluoro-1,1′-biphenyl-4-yl)-5-methyl-4,5-dihydro-1,3-oxazole]",,,90 to 100,,
"Cc1ccccc1C1=N[C@H](c2ccc(Br)cc2)[C@H](C)O1 (racemic) [Compound 17, (4R,5S)- and (4S,5R)-4-(4-bromophenyl)-2-(2-methyl)-5-methyl-4,5-dihydro-1,3-oxazole]",,,< 50,< 50,
"C[C@H]1OC(c2c(F)cccc2F)=N[C@@H]1c1ccc(I)cc1 (racemic) [Compound 22, (4R,5R)- and (4S,5S)-4-(4-iodophenyl)-2-(2,6-difluorophenyl)-5-methyl-4,5-dihydro-1,3-oxazole]",,90 to 100,,,CA: activity against cotton aphid (% Control rating) [6]: A (90-100)
"C[C@H]1OC(c2c(F)cccc2Cl)=N[C@@H]1c1ccc(Br)cc1 (racemic) [Compound 23, (4R,5R)- and (4S,5S)-4-(4-bromophenyl)-2-(2-chloro-6-fluorophenyl)-5-methyl-4,5-dihydro-1,3-oxazole]",,90 to 100,< 50,80 to 89,
"C[C@@H]1OC(c2c(F)cccc2F)=N[C@H]1c1ccc(-c2ccc(C(F)(F)F)cc2)cc1 (racemic) [Compound 26, (4S,5S)- and (4R,5R)-2-(2,6-difluorophenyl)-5-methyl-4-[4′-(trifluoromethyl)-1,1′-biphenyl-4-yl]-4,5-dihydro-1,3-oxazole]",90 to 100,90 to 100,90 to 100,,
"C[C@H]1OC(c2c(F)cccc2F)=N[C@@H]1c1ccc(-c2ccc(OC(F)(F)F)cc2)cc1 (racemic) [Compound 27, (4R,5R)- and (4S,5S)-2-(2,6-difluorophenyl)-4-(4′-trifluoromethoxy-1,1′-biphenyl-4-yl)-5-methyl-4,5-dihydro-1,3-oxazole]",,,,,TBW: activity against tobacco budworm (% Control rating) ([5]; 400 ppm): B (80-89); BAW: activity against beet armyworm (% Control rating) ([1]; 400 ppm): A (90-100); SM: activity against two-spotted spider mite (% Control rating) ([2]; 2.5 ppm): A (90-100); CL: activity against cabbage looper (% Control rating) ([3]; 400 ppm): A (90-100)
"Cc1ccc(-c2ccc([C@@H]3N=C(c4c(F)cccc4F)O[C@H]3C)cc2)cc1C (racemic) [Compound 29, (4S,5S)- and (4R,5R)-2-(2,6-difluorophenyl)-4-(3′,4′-dimethyl-1,1′-biphenyl-4-yl)-5-methyl-4,5-dihydro-1,3-oxazole]",,,90 to 100,,
"C[C@@H]1OC(c2c(F)cccc2F)=N[C@H]1c1ccc(-c2ccccc2F)cc1 (racemic) [Compound 31, (4S,5S)- and (4R,5R)-2-(2,6-difluorophenyl)-4-(2′-fluoro-1,1′-biphenyl-4-yl)-5-methyl-4,5-dihydro-1,3-oxazole]",,,90 to 100,,
"CCOc1ccc(-c2ccc([C@@H]3N=C(c4c(F)cccc4F)O[C@H]3C)cc2)cc1 (racemic) [Compound 33, (4S,5S)- and (4R,5R)-2-(2,6-difluorophenyl)-4-(4′-ethoxy-1,1′-biphenyl-4-yl)-5-methyl-4,5-dihydro-1,3-oxazole]",90 to 100,,90 to 100,80 to 89,
"C[C@H]1OC(c2c(F)cccc2F)=N[C@@H]1c1ccccc1 (racemic) [Compound 35, (4R,5R)- and (4S,5S)-4-phenyl-2-(2,6-difluorophenyl)-5-methyl-4,5-dihydro-1,3-oxazole]",,,< 50,< 50,
"C[C@H]1OC(c2c(F)cccc2F)=N[C@H]1c1ccc(-c2ccc(OC(F)(F)F)cc2)cc1 (stereo in doubt) [Compound 49, (4S,5R)-2-(2,6-difluorophenyl)-5-methyl-4-[4′-(trifluoromethoxy)-1,1′-biphenyl-4-yl]-4,5-dihydro-1,3-oxazole]",90 to 100,90 to 100,90 to 100,80 to 89,"pest or weed control at 200 ppm ([4]; Bemisia, 312 h, read-out: WF: activity against whitefly (% Control rating)): 80 to 89%"
"C[C@@H]1OC(c2c(F)cccc2F)=N[C@@H]1c1ccc(-c2ccc(OC(F)(F)F)cc2)cc1 (stereo in doubt) [Compound 51, (4R,5S)-2-(2,6-difluorophenyl)-5-methyl-4-[4′-(trifluoromethoxy)-1,1′-biphenyl-4-yl]-4,5-dihydro-1,3-oxazole]",90 to 100,90 to 100,90 to 100,80 to 89,CA: activity against cotton aphid (% Control rating) [6]: F (less than 50)
"C[C@@H]1OC(c2c(F)cccc2F)=N[C@H]1c1ccc(-c2ccc(OC(F)(F)F)cc2)cc1 [Compound 47, (4S,5S)-2-(2,6-difluorophenyl)-5-methyl-4-[4′-(trifluoromethoxy)-1,1′-biphenyl-4-yl]-4,5-dihydro-1,3-oxazole]",90 to 100,90 to 100,90 to 100,,
"C[C@H]1OC(c2c(F)cccc2F)=N[C@@H]1c1ccc(-c2ccc(OC(F)(F)F)cc2)cc1 [Compound 53, (4R,5R)-2-(2,6-difluorophenyl)-5-methyl-4-[4′-(trifluoromethoxy)-1,1′-biphenyl-4-yl]-4,5-dihydro-1,3-oxazole]",90 to 100,90 to 100,90 to 100,,
